Measured values from PubChem BioAssay (NCI).
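Interpolation was linear, between the two tested concentrations surrounding the appropriate level; five concentrations were tested over 48 hours in 96-well plates. The concentration for 50% growth inhibition is given as GI50. The concentration for full growth arrest is given as TGI.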

Experiments:
Assay in all cases: NCI tumour cell line growth inhibition, 48 h; in the data active = GI50 below about 0.43 µM; inactive = the rest
SK-MEL-2 melanoma = system: SK-MEL-2 melanoma
UACC-257 melanoma = system: UACC-257 melanoma
UO-31 renal = system: UO-31 renal
PC-3 prostate = system: PC-3 prostate
ACHN renal = system: ACHN renal
K-562 leukemia = system: K-562 leukemia
MDA-MB-435 = system: MDA-MB-435
DU-145 prostate = system: DU-145 prostate
UACC-62 melanoma = system: UACC-62 melanoma
NCI-H226 lung = system: NCI-H226 lung
RPMI-8226 leukemia = system: RPMI-8226 leukemia
KM12 colon = system: KM12 colon
SN12C renal = system: SN12C renal
HCT-15 colon = system: HCT-15 colon
SF-295 CNS = system: SF-295 CNS
SK-OV-3 ovarian = system: SK-OV-3 ovarian
MDA-MB-231 breast = system: MDA-MB-231 breast
U251 CNS = system: U251 CNS
SK-MEL-28 melanoma = system: SK-MEL-28 melanoma
SF-268 CNS = system: SF-268 CNS
IGROV1 ovarian = system: IGROV1 ovarian
NCI-H23 lung = system: NCI-H23 lung
COLO 205 colon = system: COLO 205 colon
HOP-62 NSCLC = system: HOP-62 NSCLC
SK-MEL-5 melanoma = system: SK-MEL-5 melanoma
LOX IMVI melanoma = system: LOX IMVI melanoma
NCI/ADR-RES ovarian = system: NCI/ADR-RES ovarian

Cc1ccc(C2=C(c3ccc(C)cc3)C3(c4ccc(C)cc4)[C@@H](C#N)[C@H](C#N)C2(c2ccc(C)cc2)S3=O)cc1 (stereo partly drawn)
inactive: GI50 (SK-MEL-2 melanoma) > 100 µM | GI50 (UACC-257 melanoma) > 100 µM | GI50 (UO-31 renal) > 100 µM | GI50 (PC-3 prostate) > 100 µM | GI50 (ACHN renal) > 100 µM | GI50 (K-562 leukemia) 2.02 µM | GI50 (MDA-MB-435) > 100 µM | GI50 (DU-145 prostate) > 100 µM | GI50 (UACC-62 melanoma) > 100 µM | GI50 (NCI-H226 lung) > 100 µM | GI50 (RPMI-8226 leukemia) > 100 µM | GI50 (KM12 colon) > 100 µM | GI50 (SN12C renal) > 100 µM | GI50 (HCT-15 colon) > 100 µM | GI50 (SF-295 CNS) > 100 µM | GI50 (SK-OV-3 ovarian) > 100 µM | GI50 (MDA-MB-231 breast) > 100 µM | GI50 (U251 CNS) > 100 µM | GI50 (SK-MEL-28 melanoma) > 100 µM | GI50 (SF-268 CNS) > 100 µM | GI50 (IGROV1 ovarian) > 100 µM | GI50 (NCI-H23 lung) > 100 µM | GI50 (COLO 205 colon) > 100 µM | GI50 (HOP-62 NSCLC) > 100 µM | GI50 (SK-MEL-5 melanoma) > 100 µM | GI50 (LOX IMVI melanoma) > 100 µM | GI50 (NCI/ADR-RES ovarian) > 100 µM
> 100 µM: TGI (SK-MEL-2 melanoma) | TGI (UACC-257 melanoma) | TGI (UO-31 renal) | TGI (PC-3 prostate) | TGI (ACHN renal) | TGI (K-562 leukemia) | TGI (MDA-MB-435) | TGI (DU-145 prostate) | TGI (UACC-62 melanoma) | TGI (NCI-H226 lung) | TGI (RPMI-8226 leukemia) | TGI (KM12 colon) | TGI (SN12C renal) | TGI (HCT-15 colon) | TGI (SF-295 CNS) | TGI (SK-OV-3 ovarian) | TGI (MDA-MB-231 breast) | TGI (U251 CNS) | TGI (SK-MEL-28 melanoma) | TGI (SF-268 CNS) | TGI (IGROV1 ovarian) | TGI (NCI-H23 lung) | TGI (COLO 205 colon) | TGI (HOP-62 NSCLC) | TGI (SK-MEL-5 melanoma) | TGI (LOX IMVI melanoma)
